Experimental data reported in PMC11576293, “New series of 4,6-diaryl pyrimidines: facile synthesis and antiproliferative activity as dual EGFR/VEGFR-2 inhibitors” (Frontiers in Chemistry, 2024).
Values joined by “and” are separate entries in the source; they are usually repeats but may differ in a detail not shown here. Identical values can stand only once.

How the values were obtained:
[1] = Experimental lipophilicity by RP-TLC; assay type: physicochemical
Text: The RP-TLC method was used to measure the lipophilicity parameters (RMo, b, and Co) described in the experimental section. The mobile phase consisted of different proportions of water and organic modifier (MeOH). RF and RM values were obtained for each ratio of organic modifier/water system (Supplementary Table S3), and a linear regression analysis was achieved to obtain the lipophilicity chromatographic descriptors (RMo, b, and Co, see Table 6). Relative lipophilicity (RMo) describes the partitioning of the solute between pure water and nonpolar stationary phase. In contrast, the second lipophilicity parameter (Co) represents the concentration of organic modifier in the mobile phase in which the solute is equally distributed between two phases (i.e., RM = 0, and Rf = 0.5). Also, Co is known to be widely used in QSAR analysis as it embraces both the specific hydrophobic surface area of the solute and RMo. […] Finally, the slope of the regression line (b) was used as a descriptor of the specific hydrophobic surface area of the compound. In a series of structurally related compounds, b is linearly correlated with RMo, resulting in a linear relationship that is the basic feature of the chromatographic determination of lipophilicity. […] Moreover, substituents affected tested compounds’ measured lipophilicity parameter (RMo) values. Higher RMo values were found with lipophilic derivatives containing the benzyl group (14, 22, and 28), while lower RMo values were found with derivatives containing alkyl or allyl groups (19, 26, and 27). An interesting contradiction was found with experimental lipophilicity value of 28 and its congener 14, where compound 28 was found more lipophilic than its congener 14 even though it contains two methoxy groups and according to ChemDraw® and MolSoft® programs, derivative 14 should be more lipophilic while the MOE® program expects values matching our findings. […] Also, S-allyl derivatives were nearly equipotent to S-alkyl congeners as antiproliferative agents but quite different in terms of lipophilicity.

[2] = system: Bcl-2; assay: Bcl-2 inhibition assay; assay type: cell-based, human; details: A-549 cell line
Description: 4.2.8. Bcl-2 inhibition assay
Mix all reagents thoroughly without foaming before use. Wash the microwells twice with approximately 300 μL Wash Buffer per well with thorough aspiration of microwell contents between washes. Take caution not to scratch the surface of the microwells. After the last wash, empty the wells and tap microwell strips on absorbent pad or paper towel to remove excess Wash Buffer. Use the microwell strips immediately after washing or place upside down on a wet absorbent paper for not longer than 15 minutes. […] Add 100 μL of Sample […]
Diluent in duplicate to all standard wells and to the blank wells. Prepare standard (1:2 dilution) in duplicate ranging from 32 ng/mL to 0.5 ng/mL. Add 100 μL of Sample Diluent, in duplicate, to the blank wells. Add 80 μL of Sample Diluent, in duplicate, to the sample wells. Add 20 μL of each Sample, in duplicate, to the designated wells. Add 50 μL of diluted biotin-conjugate to all wells, including the blank wells. Cover with a plate cover and incubate at room temperature, on a microplate shaker at 100 rpm if available, for 2 hours. Remove plate cover and empty the wells.
Wash microwell strips 3 times as described in step 2. Add 100 μL of diluted Streptavidin-HRP to all wells, including the blank wells. Cover with a plate cover and incubate at room temperature, on a microplate shaker at 100 rpm if available, for 1 hour. Remove plate cover and empty the wells.
Wash microwell strips 3 times as described in step 2. Proceed to the next step. Pipette 100 μl of mixed TMB Substrate Solution to all wells, including the blanks. Incubate the microwell strips at room temperature (18° to 25°C) for about 15 minutes, if available on a rotator set at 100 rpm.
Avoid direct exposure to intense light. The point, at which the substrate reaction is stopped, is often determined by the ELISA reader. Many ELISA readers record absorbance only up to 2.0
O.D. Therefore, the color development within individual microwells must be watched by the person running the assay and the substrate reaction stopped before positive wells are no longer properly detectable. Stop the enzyme reaction by quickly pipetting 100 μL of Stop Solution into each well, including the blank wells. It is important that the Stop Solution is spread quickly and uniformly throughout the microwells to completely inactivate the enzyme. Results must be read immediately after the Stop Solution is added or within one hour i f the microwell strips are stored at 2 - 8°C in the dark. Read absorbance of each microwell on a spectrophotometer using 450 nm as the primary wavelength.

[3] = target: VEGFR-2 (Homo sapiens, UniProt P35968); assay: VEGFR-2 inhibitory assay
Chain of VEGFR-2 (P35968 20-1356): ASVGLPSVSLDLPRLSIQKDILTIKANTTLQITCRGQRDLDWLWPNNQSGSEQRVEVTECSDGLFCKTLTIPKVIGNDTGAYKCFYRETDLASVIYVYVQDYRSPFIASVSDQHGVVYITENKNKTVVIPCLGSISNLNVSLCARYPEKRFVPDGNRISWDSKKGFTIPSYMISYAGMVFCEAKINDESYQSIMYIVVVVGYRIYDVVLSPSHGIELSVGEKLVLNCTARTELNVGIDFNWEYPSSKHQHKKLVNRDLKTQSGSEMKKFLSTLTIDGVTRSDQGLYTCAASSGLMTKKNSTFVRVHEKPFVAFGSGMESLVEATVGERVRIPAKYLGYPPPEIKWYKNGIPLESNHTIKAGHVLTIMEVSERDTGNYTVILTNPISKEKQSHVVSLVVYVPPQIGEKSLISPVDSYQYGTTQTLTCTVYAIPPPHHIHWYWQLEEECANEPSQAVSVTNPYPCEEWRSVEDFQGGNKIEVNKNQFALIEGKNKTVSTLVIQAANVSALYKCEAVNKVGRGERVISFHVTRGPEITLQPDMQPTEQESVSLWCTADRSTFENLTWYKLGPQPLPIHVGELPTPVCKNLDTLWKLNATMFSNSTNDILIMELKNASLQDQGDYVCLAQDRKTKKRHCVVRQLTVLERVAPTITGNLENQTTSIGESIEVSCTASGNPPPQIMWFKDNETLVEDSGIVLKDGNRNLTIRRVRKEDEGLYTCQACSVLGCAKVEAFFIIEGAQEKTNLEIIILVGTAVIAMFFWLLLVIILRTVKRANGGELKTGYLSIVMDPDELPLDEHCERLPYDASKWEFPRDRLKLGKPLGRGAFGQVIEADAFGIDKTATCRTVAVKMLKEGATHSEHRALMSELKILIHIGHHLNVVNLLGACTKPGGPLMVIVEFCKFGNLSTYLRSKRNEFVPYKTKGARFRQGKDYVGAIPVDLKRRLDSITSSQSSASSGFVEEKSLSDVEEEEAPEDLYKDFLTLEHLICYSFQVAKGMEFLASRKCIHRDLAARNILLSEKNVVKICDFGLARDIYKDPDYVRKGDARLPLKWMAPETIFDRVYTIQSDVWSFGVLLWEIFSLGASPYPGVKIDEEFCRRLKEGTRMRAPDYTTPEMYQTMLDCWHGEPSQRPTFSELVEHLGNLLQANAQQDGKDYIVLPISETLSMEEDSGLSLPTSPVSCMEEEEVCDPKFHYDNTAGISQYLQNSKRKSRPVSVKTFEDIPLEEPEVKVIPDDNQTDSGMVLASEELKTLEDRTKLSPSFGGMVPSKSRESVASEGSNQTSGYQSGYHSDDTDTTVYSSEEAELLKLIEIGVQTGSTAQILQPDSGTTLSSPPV

[4] = target: T1, EGFR (Homo sapiens, UniProt P00533); assay: EGFR-TK inhibitory assay; assay type: biochemical; details: read-out: EGFR inhibition IC50 ± SEM
T1 construct: amino acids 645–1186; His6 (N); made in house; host or cells: Sf-9 insect cells (baculovirus; pBlueBacHis2B / pFASTBacHTc)
T1 sequence (P00533 669-1210): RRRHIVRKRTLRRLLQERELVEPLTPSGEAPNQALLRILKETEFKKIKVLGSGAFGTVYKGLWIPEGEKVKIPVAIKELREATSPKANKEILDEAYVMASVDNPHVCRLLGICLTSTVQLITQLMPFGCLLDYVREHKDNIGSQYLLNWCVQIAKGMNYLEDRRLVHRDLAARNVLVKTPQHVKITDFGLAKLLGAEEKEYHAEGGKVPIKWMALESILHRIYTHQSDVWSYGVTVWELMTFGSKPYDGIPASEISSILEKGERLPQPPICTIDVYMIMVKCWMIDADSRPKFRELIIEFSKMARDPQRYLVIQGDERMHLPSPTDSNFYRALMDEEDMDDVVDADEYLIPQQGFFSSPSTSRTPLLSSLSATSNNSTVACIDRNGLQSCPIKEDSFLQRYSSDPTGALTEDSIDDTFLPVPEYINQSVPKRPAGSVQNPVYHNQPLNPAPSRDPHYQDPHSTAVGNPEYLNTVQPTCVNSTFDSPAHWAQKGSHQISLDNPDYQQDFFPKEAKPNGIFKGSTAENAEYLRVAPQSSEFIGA

[5] = system: M14; assay: NCI-60 single-dose screen; assay type: cell-based; details: Homo sapiens, single dose 10 µM, '-' = no inhibition, read-out: % Growth Inhibition
How it was run: (§1)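 Single concentration of 10 μM applied to every line of the 60-cell-line NCI panel. Testing performed by NCI DTP.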

[6] = system: HCT-15; assay: NCI-60 single-dose screen; assay type: cell-based; details: Homo sapiens, single dose 10 µM, '-' = no inhibition, read-out: % Growth Inhibition
How it was run: as §1

[7] = system: SW-620; assay: NCI-60 single-dose screen; assay type: cell-based; details: Homo sapiens, single dose 10 µM, '-' = no inhibition, read-out: % Growth Inhibition
How it was run: as §1

[8] = system: T-47D; assay: NCI-60 single-dose screen; assay type: cell-based; details: Homo sapiens, T47D, single dose 10 µM, '-' = no inhibition, read-out: % Growth Inhibition
How it was run: as §1

[9] = system: SF-539; assay: NCI-60 single-dose screen; assay type: cell-based; details: Homo sapiens, single dose 10 µM, '-' = no inhibition, read-out: % Growth Inhibition
How it was run: as §1

[10] = system: HS 578T; assay: NCI-60 single-dose screen; assay type: cell-based; details: Homo sapiens, single dose 10 µM, '-' = no inhibition, read-out: % Growth Inhibition
How it was run: as §1

[11] = system: SK-OV-3; assay: NCI-60 single-dose screen; assay type: cell-based; details: Homo sapiens, single dose 10 µM, '-' = no inhibition, read-out: % Growth Inhibition
How it was run: as §1

| Experimental lipophilicity RMo ([1]; MeOH/water mobile phase) | Experimental lipophilicity Co ([1]; concentration of MeOH at RM = 0, in % (unit assumed)) | SMILES | Bcl-2 Conc [2] [ng/mL] | IC50 [3] [nM] | IC50 [4] [nM] | Bcl-2 Fold reduction ([2]; versus control) [fold] | inhibition at 10 µM [5] [%] | inhibition at 10 µM [6] [%] | inhibition at 10 µM [7] [%] | inhibition at 10 µM [8] [%] | inhibition at 10 µM [9] [%] | inhibition at 10 µM [10] [%] | inhibition at 10 µM [11] [%] |
| --- | --- | --- | --- | --- | --- | --- | --- | --- | --- | --- | --- | --- | --- |
| 6.449 ± 0.05873 and 6.24 | 90.6598 and 87.7 | COc1ccc(CSc2nc(-c3ccc(OC)cc3)cc(-c3cccc(OC)c3)n2)cc1 [Compound 22, 2-(4-Methoxybenzylthio)-6-(3-methoxyphenyl)-4-(4-methoxyphenyl)pyrimidine] | 0.90 | 1.15 ± 0.01 | – | – | – | – | – | – | – | – | – |
| – | – | COc1ccc(CSc2nc(-c3ccc(Cl)cc3)cc(-c3ccc(OC)c(OC)c3)n2)cc1 [Compound 29, 2-(4-Methoxybenzylthio)-4-(4-chlorophenyl)-6-(3,4-dimethoxyphenyl)pyrimidine] | 1.15 | 1.6 ± 0.01 | 72 ± 5 | 5 | 19.3 | 42.1 | 12.7 | 34.6 | 14.7 | 37.5 | 13.9 |
